{
  "source": "paper PMC6704710",
  "about": "“Preclinical evaluation of 3D185, a novel potent inhibitor of FGFR1/2/3 and CSF-1R, in FGFR-dependent and macrophage-dominant cancer models” (Journal of Experimental & Clinical Cancer Research : CR, 2019)",
  "experiment_in_all_cases": "Eurofins kinase panel",
  "format_in_all_cases": "biochemical",
  "key": {"CHK2(I157T)(h)": {"biological_target": "T1, CHK2(I157T)(h) (Homo sapiens, UniProt O96017, I157T)", "T1 construct": "purchased Eurofins (KinaseProfiler)", "T1 sequence (O96017 whole entry I157T)": "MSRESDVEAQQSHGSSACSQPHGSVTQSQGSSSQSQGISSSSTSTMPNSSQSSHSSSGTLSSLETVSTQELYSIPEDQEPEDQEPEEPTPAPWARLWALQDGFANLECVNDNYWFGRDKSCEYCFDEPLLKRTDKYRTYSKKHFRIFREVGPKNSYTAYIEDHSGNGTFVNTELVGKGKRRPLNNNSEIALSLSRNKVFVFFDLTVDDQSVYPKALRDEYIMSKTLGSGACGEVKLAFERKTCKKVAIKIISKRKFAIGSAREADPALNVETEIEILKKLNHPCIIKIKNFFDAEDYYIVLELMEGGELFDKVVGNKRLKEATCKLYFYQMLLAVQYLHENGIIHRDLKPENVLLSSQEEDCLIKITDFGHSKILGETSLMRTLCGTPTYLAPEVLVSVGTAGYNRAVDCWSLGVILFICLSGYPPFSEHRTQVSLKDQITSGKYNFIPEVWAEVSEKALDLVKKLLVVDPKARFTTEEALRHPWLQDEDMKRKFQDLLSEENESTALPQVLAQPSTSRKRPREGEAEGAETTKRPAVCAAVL", "settings": "read-out: Inhibition rate (%)"}, "PKG1β(h)": {"biological_target": "T2, PKG1β(h) (Homo sapiens, UniProt Q13976)", "T2 construct": "purchased Eurofins (KinaseProfiler)", "T2 sequence (Q13976 1-686 isoform Q13976-2)": "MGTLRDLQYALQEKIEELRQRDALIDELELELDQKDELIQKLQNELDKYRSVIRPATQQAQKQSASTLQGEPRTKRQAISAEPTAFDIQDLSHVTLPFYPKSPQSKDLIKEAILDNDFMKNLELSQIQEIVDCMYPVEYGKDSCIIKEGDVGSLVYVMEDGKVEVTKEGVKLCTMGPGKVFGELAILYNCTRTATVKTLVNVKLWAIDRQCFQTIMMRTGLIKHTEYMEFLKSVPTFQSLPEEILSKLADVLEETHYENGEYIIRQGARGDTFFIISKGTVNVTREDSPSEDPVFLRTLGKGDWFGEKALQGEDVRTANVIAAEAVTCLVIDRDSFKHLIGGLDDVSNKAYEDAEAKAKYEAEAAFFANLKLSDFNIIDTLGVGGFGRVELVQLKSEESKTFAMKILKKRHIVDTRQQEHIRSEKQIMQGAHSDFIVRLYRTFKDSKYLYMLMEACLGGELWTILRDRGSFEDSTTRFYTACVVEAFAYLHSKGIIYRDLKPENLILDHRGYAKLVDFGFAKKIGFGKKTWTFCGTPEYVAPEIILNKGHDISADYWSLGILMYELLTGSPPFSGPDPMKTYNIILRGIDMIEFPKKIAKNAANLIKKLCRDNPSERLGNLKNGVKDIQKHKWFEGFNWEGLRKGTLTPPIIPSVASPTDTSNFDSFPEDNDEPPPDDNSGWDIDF", "settings": "read-out: Inhibition rate (%)"}, "JAK3(h)": {"biological_target": "T3, JAK3(h) (Homo sapiens, UniProt P52333)", "T3 construct": "purchased Eurofins (KinaseProfiler)", "T3 sequence (P52333 1-1124)": "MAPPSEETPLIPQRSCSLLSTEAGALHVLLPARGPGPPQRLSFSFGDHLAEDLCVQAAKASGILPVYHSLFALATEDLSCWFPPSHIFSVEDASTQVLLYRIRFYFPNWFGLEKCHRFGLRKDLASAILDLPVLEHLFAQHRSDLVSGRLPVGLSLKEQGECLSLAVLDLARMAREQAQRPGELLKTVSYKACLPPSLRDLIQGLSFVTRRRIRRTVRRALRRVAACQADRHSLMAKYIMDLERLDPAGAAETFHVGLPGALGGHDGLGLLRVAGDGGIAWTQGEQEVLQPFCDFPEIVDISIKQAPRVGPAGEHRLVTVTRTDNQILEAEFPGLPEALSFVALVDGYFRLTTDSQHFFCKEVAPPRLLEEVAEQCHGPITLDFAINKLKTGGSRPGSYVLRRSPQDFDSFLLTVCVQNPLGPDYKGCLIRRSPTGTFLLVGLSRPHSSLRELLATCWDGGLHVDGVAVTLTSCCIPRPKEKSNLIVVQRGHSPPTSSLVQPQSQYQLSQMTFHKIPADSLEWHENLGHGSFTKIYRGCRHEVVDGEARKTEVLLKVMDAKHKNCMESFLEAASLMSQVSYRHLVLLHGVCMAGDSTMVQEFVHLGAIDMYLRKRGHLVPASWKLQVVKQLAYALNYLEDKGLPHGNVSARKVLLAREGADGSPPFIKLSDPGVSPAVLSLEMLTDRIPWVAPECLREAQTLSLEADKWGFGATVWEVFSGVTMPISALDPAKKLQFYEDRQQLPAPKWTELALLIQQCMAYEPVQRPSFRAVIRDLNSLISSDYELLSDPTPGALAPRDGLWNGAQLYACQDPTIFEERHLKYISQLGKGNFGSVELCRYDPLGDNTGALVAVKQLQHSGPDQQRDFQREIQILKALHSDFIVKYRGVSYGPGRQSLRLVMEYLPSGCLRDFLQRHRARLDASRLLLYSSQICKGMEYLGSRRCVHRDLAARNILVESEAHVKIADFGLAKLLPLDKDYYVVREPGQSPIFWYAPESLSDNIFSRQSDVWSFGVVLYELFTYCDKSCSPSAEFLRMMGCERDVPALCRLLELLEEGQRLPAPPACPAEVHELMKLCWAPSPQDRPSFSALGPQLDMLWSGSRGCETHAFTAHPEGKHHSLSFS", "settings": "read-out: Inhibition rate (%)"}, "GCN2(h)": {"biological_target": "T4, GCN2(h) (Homo sapiens, UniProt Q9P2K8)", "T4 construct": "purchased Eurofins (KinaseProfiler)", "T4 sequence (Q9P2K8 whole entry)": "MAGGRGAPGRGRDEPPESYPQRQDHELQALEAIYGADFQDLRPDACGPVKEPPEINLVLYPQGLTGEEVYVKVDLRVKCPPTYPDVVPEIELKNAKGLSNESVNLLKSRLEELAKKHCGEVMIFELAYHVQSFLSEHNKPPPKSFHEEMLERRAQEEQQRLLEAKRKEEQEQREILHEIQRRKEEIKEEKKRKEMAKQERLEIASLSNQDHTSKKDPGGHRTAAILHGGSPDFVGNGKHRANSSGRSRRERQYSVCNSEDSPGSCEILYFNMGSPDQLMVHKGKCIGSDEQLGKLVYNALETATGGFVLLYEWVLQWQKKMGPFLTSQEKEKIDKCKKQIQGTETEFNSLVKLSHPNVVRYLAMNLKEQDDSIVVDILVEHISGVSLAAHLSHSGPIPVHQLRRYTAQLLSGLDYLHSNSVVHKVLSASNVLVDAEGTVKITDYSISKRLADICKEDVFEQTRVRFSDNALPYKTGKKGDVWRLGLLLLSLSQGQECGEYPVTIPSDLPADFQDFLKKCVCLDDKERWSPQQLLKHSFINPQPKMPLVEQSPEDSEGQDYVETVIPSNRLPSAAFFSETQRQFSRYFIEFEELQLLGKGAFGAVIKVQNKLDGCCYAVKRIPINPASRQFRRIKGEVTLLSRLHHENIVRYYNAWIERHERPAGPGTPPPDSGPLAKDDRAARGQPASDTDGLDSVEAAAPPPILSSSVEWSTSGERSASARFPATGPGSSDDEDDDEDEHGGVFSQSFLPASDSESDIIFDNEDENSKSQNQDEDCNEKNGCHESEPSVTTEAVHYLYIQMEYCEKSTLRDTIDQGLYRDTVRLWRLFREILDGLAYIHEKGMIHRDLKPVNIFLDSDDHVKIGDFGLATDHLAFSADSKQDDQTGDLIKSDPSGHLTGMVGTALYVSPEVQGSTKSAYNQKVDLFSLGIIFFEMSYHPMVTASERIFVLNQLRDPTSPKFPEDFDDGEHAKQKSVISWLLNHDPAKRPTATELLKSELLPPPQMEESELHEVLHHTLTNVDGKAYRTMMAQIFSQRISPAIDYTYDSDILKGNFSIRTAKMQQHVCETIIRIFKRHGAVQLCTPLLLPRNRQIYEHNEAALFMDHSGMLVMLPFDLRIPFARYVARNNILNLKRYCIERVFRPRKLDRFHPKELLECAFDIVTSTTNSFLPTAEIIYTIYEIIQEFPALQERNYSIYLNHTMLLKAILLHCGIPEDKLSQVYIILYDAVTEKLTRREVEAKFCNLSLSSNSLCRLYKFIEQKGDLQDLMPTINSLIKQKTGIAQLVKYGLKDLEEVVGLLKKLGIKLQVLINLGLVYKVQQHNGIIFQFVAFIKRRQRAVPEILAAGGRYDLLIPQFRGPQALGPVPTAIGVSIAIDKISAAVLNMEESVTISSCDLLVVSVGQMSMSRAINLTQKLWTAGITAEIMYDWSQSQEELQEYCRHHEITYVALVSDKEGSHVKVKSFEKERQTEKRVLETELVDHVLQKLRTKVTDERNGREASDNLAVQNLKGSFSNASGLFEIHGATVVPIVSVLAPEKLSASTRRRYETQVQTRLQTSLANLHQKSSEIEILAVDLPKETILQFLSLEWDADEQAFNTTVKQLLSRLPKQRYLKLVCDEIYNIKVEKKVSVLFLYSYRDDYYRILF", "settings": "read-out: Inhibition rate (%)"}, "Fms(h)": {"biological_target": "Fms(h) (Homo sapiens, UniProt P07333)", "sequence (P07333 20-972)": "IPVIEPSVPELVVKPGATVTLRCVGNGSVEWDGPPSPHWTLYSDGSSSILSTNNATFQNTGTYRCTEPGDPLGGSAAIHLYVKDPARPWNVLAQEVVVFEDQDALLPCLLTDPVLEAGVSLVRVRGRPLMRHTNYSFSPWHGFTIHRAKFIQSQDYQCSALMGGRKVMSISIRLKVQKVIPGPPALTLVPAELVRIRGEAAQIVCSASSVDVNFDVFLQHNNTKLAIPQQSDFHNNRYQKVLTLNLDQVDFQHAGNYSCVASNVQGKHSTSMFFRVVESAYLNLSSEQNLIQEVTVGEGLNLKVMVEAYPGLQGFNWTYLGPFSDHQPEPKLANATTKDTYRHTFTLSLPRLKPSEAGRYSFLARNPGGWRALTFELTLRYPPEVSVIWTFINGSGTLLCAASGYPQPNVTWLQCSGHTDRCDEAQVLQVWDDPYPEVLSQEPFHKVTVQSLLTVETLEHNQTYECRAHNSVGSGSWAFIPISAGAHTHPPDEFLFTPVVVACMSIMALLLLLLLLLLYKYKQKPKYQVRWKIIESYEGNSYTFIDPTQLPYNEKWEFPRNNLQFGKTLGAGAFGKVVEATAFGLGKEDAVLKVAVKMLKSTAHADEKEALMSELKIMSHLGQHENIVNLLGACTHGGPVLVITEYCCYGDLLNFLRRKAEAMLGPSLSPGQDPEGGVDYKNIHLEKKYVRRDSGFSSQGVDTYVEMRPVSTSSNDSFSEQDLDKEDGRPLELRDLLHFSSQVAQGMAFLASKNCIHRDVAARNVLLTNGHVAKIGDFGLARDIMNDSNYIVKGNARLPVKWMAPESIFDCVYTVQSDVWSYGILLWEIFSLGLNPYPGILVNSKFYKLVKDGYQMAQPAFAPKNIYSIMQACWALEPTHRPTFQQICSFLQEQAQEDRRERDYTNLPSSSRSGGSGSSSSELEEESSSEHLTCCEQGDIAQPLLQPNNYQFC"}, "Aurora-B(h)": {"biological_target": "T5, Aurora-B(h) (Homo sapiens, UniProt Q96GD4)", "T5 construct": "purchased Eurofins (KinaseProfiler)", "T5 sequence (Q96GD4 whole entry)": "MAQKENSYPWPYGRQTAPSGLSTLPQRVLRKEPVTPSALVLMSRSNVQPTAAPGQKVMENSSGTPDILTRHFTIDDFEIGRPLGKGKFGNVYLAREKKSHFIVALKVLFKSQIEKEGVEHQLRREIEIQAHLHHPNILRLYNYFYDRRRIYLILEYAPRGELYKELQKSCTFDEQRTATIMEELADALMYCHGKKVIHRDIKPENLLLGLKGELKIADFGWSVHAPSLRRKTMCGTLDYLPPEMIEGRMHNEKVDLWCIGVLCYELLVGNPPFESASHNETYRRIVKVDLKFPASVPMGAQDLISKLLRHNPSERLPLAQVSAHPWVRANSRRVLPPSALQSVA", "settings": "read-out: Inhibition rate (%)"}, "MEK1(h)": {"biological_target": "T6, MEK1(h) (Homo sapiens, UniProt Q02750)", "T6 construct": "purchased Eurofins (KinaseProfiler)", "T6 sequence (Q02750 whole entry)": "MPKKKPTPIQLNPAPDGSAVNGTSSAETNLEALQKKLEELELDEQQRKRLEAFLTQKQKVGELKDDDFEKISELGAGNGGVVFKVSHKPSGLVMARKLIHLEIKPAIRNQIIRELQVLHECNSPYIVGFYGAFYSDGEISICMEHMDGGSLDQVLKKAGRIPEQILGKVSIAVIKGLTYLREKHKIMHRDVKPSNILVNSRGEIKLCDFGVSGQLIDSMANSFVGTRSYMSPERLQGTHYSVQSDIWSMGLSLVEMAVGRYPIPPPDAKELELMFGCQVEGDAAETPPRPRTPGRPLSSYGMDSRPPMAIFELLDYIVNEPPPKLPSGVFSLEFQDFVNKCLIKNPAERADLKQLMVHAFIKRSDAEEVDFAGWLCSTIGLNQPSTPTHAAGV", "settings": "read-out: Inhibition rate (%)"}},
  "data": [
    {"smiles": "COc1cc(OC)c(Cl)c(-c2ccc3c(NC(=O)c4ccc(N5CCNC(C)(C)C5)cc4)n[nH]c3n2)c1Cl", "note": "[3D185]", "values": [
      {"measurement": "inhibition at 0.01 µM", "setting": "CHK2(I157T)(h); 10 nM", "value": -6, "unit": "%"},
      {"measurement": "inhibition at 0.1 µM", "setting": "CHK2(I157T)(h); 100 nM", "value": -5, "unit": "%"},
      {"measurement": "inhibition at 1 µM", "setting": "CHK2(I157T)(h); 1000 nM", "value": -1, "unit": "%"},
      {"measurement": "inhibition at 0.01 µM", "setting": "PKG1β(h); 10 nM", "value": 12, "unit": "%"},
      {"measurement": "inhibition at 0.1 µM", "setting": "PKG1β(h); 100 nM", "value": 1, "unit": "%"},
      {"measurement": "inhibition at 1 µM", "setting": "PKG1β(h); 1000 nM", "value": 4, "unit": "%"},
      {"measurement": "inhibition at 0.01 µM", "setting": "JAK3(h); 10 nM", "value": -11, "unit": "%"},
      {"measurement": "inhibition at 0.1 µM", "setting": "JAK3(h); 100 nM", "value": 0, "unit": "%"},
      {"measurement": "inhibition at 1 µM", "setting": "JAK3(h); 1000 nM", "value": 10, "unit": "%"},
      {"measurement": "inhibition at 0.01 µM", "setting": "GCN2(h); 10 nM", "value": 3, "unit": "%"},
      {"measurement": "inhibition at 0.1 µM", "setting": "GCN2(h); 100 nM", "value": -12, "unit": "%"},
      {"measurement": "inhibition at 1 µM", "setting": "GCN2(h); 1000 nM", "value": -49, "unit": "%"},
      {"measurement": "IC50", "setting": "Fms(h); CSF-1R, estimated from 372-kinase panel", "value": "< 10", "unit": "nM"},
      {"measurement": "inhibition at 0.01 µM", "setting": "Fms(h); read-out: Inhibition rate (%)", "value": 75, "unit": "%"},
      {"measurement": "inhibition at 0.1 µM", "setting": "Fms(h); read-out: Inhibition rate (%)", "value": 93, "unit": "%"},
      {"measurement": "inhibition at 1 µM", "setting": "Fms(h); read-out: Inhibition rate (%)", "value": 96, "unit": "%"},
      {"measurement": "inhibition at 0.01 µM", "setting": "Aurora-B(h); 10 nM", "value": 7, "unit": "%"},
      {"measurement": "inhibition at 0.1 µM", "setting": "Aurora-B(h); 100 nM", "value": -4, "unit": "%"},
      {"measurement": "inhibition at 1 µM", "setting": "Aurora-B(h); 1000 nM", "value": 5, "unit": "%"},
      {"measurement": "inhibition at 0.01 µM", "setting": "MEK1(h); 10 nM", "value": 10, "unit": "%"},
      {"measurement": "inhibition at 0.1 µM", "setting": "MEK1(h); 100 nM", "value": 14, "unit": "%"},
      {"measurement": "inhibition at 1 µM", "setting": "MEK1(h); 1000 nM", "value": 8, "unit": "%"}
    ]}
  ]
}
